Assay results: PubChem BioAssay AID330 (DTP/NCI, 2004)
Where “and” joins values, the source holds several entries; their conditions need not be identical. Equal values may be shown once. Toxic doses and inconclusive results are not listed.

System: P388 leukemia ip, CD2F1 mice, survival T/C
Test: NCI In Vivo Anticancer Drug Screen. Data for tumor model P388 Leukemia (intraperitoneal) in CD2F1 (CDF1) mice
Conditions: endpoint: median survival time, higher = longer survival
Summary of the method: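 Mice carrying the transplanted tumor received test compound or vehicle. Survival was recorded in each group, and the value is the treated-group measurement divided by that of the vehicle-treated control group.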

[1] = dose: 12.5 mg/kg/injection, schedule: Q01DX005 (ip), vehicle: saline with Tween-80
[2] = dose: 25.0 mg/kg/injection, schedule: Q01DX005 (ip), vehicle: saline with Tween-80
[3] = dose: 50.0 mg/kg/injection, schedule: Q01DX009 (ip), vehicle: saline with Tween-80
[4] = dose: 50.0 mg/kg/injection, schedule: Q01DX005 (ip), vehicle: saline with Tween-80
[5] = dose: 100.0 mg/kg/injection, schedule: Q01DX005 (ip), vehicle: saline with Tween-80
[6] = dose: 200.0 mg/kg/injection, schedule: Q01DX005 (ip), vehicle: saline with Tween-80
[7] = dose: 50.0 mg/kg/injection, schedule: Q01DX005 (ip), vehicle: Klucel (hydroxypropylcellulose) (HPC)
[8] = dose: 100.0 mg/kg/injection, schedule: Q01DX005 (ip), vehicle: Klucel (hydroxypropylcellulose) (HPC)
[9] = dose: 200.0 mg/kg/injection, schedule: Q01DX005 (ip), vehicle: Klucel (hydroxypropylcellulose) (HPC)
[10] = dose: 60.0 mg/kg/injection, schedule: Q01DX005 (ip), vehicle: saline with Tween-80
[11] = dose: 50.0 mg/kg/injection, schedule: Q01DX009 (ip), vehicle: Klucel (hydroxypropylcellulose) (HPC)
[12] = dose: 100.0 mg/kg/injection, schedule: Q01DX009 (ip), vehicle: Klucel (hydroxypropylcellulose) (HPC)
[13] = dose: 100.0 mg/kg/injection, schedule: Q01DX001 (ip), vehicle: saline with Tween-80
[14] = dose: 200.0 mg/kg/injection, schedule: Q01DX001 (ip), vehicle: saline with Tween-80
[15] = dose: 400.0 mg/kg/injection, schedule: Q01DX001 (ip), vehicle: saline with Tween-80

With CC1OC(OCC2OC(Oc3c(-c4ccc(O)c(O)c4)oc4cc(O)cc(O)c4c3=O)C(O)C(O)C2O)C(O)C(O)C1O (centres undefined) the T/C (dose: 6.25 mg/kg/injection, schedule: Q01DX005 (ip), vehicle: saline with Tween-80) was 95 % of control, the T/C [1] was 94 % of control and the T/C [2] was 94 % of control.

In the case of CCCOC(=O)/C=C(\I)C(=O)OCCC, the T/C (dose: 12.5 mg/kg/injection, schedule: Q01DX009 (ip), vehicle: saline with Tween-80) is reported as 119 % of control, the T/C (dose: 25.0 mg/kg/injection, schedule: Q01DX009 (ip), vehicle: saline with Tween-80) is reported as 110 % of control and the T/C [3] is reported as 110 % of control and 92 % of control.

For Nc1nnc(Cc2nnc(N)o2)o1, the T/C [4] was 101 % of control, the T/C [5] was 101 % of control and the T/C [6] was 98 % of control.

In the case of O=C(O)CCS/N=N/c1nc2nc[nH]c(=O)c2[nH]1, the T/C [7] is reported as 107 % of control, the T/C [8] is reported as 103 % of control and the T/C [9] is reported as 104 % of control.

With CCOC(=O)C(CCc1ccccn1)C(C)=O (centres undefined) the T/C [10] was 94 % of control, the T/C (dose: 120.0 mg/kg/injection, schedule: Q01DX005 (ip), vehicle: saline with Tween-80) was 98 % of control and the T/C (dose: 240.0 mg/kg/injection, schedule: Q01DX005 (ip), vehicle: saline with Tween-80) was 98 % of control.

In the case of CC1(C)CC(=O)C=C(NCCO)C1, the T/C (dose: 50.0 mg/kg/injection, schedule: Q01DX005 (ip), vehicle: saline) is reported as 96 % of control, the T/C (dose: 100.0 mg/kg/injection, schedule: Q01DX005 (ip), vehicle: saline) is reported as 91 % of control and the T/C (dose: 200.0 mg/kg/injection, schedule: Q01DX005 (ip), vehicle: saline) is reported as 96 % of control.

For O=C(CN1CCOCC1)c1cc2c(c3ccccc13)CCCC2, the T/C [7] was 94 % of control, the T/C [8] was 99 % of control and the T/C [9] was 96 % of control.

With Cc1c(C(=O)O)nc(C(Br)(Br)Br)[nH]c1=O the T/C (dose: 12.5 mg/kg/injection, schedule: Q01DX009 (ip), vehicle: distilled water + Tween-80) was 94 % of control, the T/C (dose: 25.0 mg/kg/injection, schedule: Q01DX009 (ip), vehicle: distilled water + Tween-80) was 118 % of control and the T/C (dose: 50.0 mg/kg/injection, schedule: Q01DX009 (ip), vehicle: distilled water + Tween-80) was 118 % of control. For the same compound, the T/C (dose: 100.0 mg/kg/injection, schedule: Q01DX009 (ip), vehicle: distilled water + Tween-80) was 107 % of control and the T/C (dose: 200.0 mg/kg/injection, schedule: Q01DX009 (ip), vehicle: distilled water + Tween-80) was 107 % of control.

In the case of Cc1cc(NC(=O)C(=O)C(C#N)c2cccc(Cl)c2)no1 (centres undefined), the T/C [4] is reported as 100 % of control, the T/C [5] is reported as 101 % of control and the T/C [6] is reported as 108 % of control.

For O=c1cc(O)cc[nH]1, the T/C (dose: 400.0 mg/kg/injection, schedule: Q01DX009 (ip), vehicle: saline) was 100 % of control and 96 % of control and the T/C (dose: 600.0 mg/kg/injection, schedule: Q01DX009 (ip), vehicle: saline) was 101 % of control and 106 % of control.

In the case of CC(C)(C)C(=O)OCCOCCOC(=O)c1ccccc1, the T/C [11] is reported as 95 % of control, the T/C [12] is reported as 104 % of control and the T/C (dose: 200.0 mg/kg/injection, schedule: Q01DX009 (ip), vehicle: Klucel (hydroxypropylcellulose) (HPC)) is reported as 102 % of control.

COC(=O)C1CC=C(c2ccccc2)CNC1 (centres undefined) was tested, and the T/C [13] was 93 % of control and the T/C [14] was 94 % of control.

O=C(O)c1c[nH]c2cc(-n3cccc3)ccc2c1=O was tested, and the T/C (dose: 15.0 mg/kg/injection, schedule: Q01DX005 (ip), vehicle: saline with Tween-80) was 102 % of control, the T/C (dose: 30.0 mg/kg/injection, schedule: Q01DX005 (ip), vehicle: saline with Tween-80) was 101 % of control and the T/C [10] was 102 % of control and 88 % of control.

In the case of Cc1cc(N=Nc2ccc(NC(=O)c3ccc([N+](=O)[O-])cc3)cc2C)ccc1N=Nc1ccc2cc(S(=O)(=O)O)cc(S(=O)(=O)O)c2c1, the T/C [1] is reported as 102 % of control and 107 % of control and 109 % of control, the T/C [2] is reported as 109 % of control and 111 % of control and 120 % of control and the T/C [5] is reported as 111 % of control.

With Oc1ccc(O)c([P+](c2ccccc2)(c2ccccc2)c2ccccc2)c1 the T/C [3] was 111 % of control and the T/C (dose: 100.0 mg/kg/injection, schedule: Q01DX009 (ip), vehicle: saline with Tween-80) was 115 % of control.

For COc1cc(/C=C2\SC(=S)N(c3ccc(Cl)c(Cl)c3)C2=O)ccc1O, the T/C [7] was 89 % of control, the T/C [8] was 86 % of control and the T/C [9] was 89 % of control.

In the case of Cc1c(-c2ccccc2)oc(=O)c(Cl)c1N(C)c1ccccc1, the T/C [13] is reported as 94 % of control, the T/C [14] is reported as 99 % of control and the T/C [15] is reported as 91 % of control.

In the case of O=[N+]([O-])c1cnc(Sc2cncc[n+]2[O-])s1, the T/C (dose: 1.56 mg/kg/injection, schedule: Q01DX009 (ip), vehicle: Klucel (hydroxypropylcellulose) (HPC)) is reported as 100 % of control, the T/C (dose: 3.12 mg/kg/injection, schedule: Q01DX009 (ip), vehicle: Klucel (hydroxypropylcellulose) (HPC)) is reported as 93 % of control and the T/C (dose: 6.25 mg/kg/injection, schedule: Q01DX009 (ip), vehicle: Klucel (hydroxypropylcellulose) (HPC)) is reported as 102 % of control and 90 % of control.

With COc1ccc(-c2ccc(OC)c(=O)cc2)c(OC)c1OC the T/C [7] was 93 % of control and the T/C [8] was 105 % of control.

In the case of COc1cc(-c2[o+]c3cc(O)cc(O)c3cc2OC2OC(CO)C(O)C(O)C2O)cc(OC)c1O (centres undefined), the T/C (dose: 25.0 mg/kg/injection, schedule: Q01DX009 (ip), vehicle: saline sonified) is reported as 100 % of control, the T/C (dose: 50.0 mg/kg/injection, schedule: Q01DX009 (ip), vehicle: saline sonified) is reported as 100 % of control and the T/C (dose: 100.0 mg/kg/injection, schedule: Q01DX009 (ip), vehicle: saline sonified) is reported as 100 % of control.

For Cn1c(=O)[nH]c2nnc(-c3ccccc3)nc2c1=O, the T/C [11] was 107 % of control and the T/C [12] was 106 % of control.

CCC1(CC)C(=O)NC(=O)[N]([Sn]([CH3])([CH3])[N]2C(=O)NC(=O)C(CC)(CC)C2=O)C1=O was tested, and the T/C [7] was 112 % of control and the T/C [8] was 111 % of control.

With Nc1ccccc1-c1ccccc1N the T/C (dose: 60.0 mg/kg/injection, schedule: Q01DX005 (ip), vehicle: suspension in saline) was 99 % of control, the T/C (dose: 120.0 mg/kg/injection, schedule: Q01DX005 (ip), vehicle: suspension in saline) was 103 % of control and the T/C (dose: 240.0 mg/kg/injection, schedule: Q01DX005 (ip), vehicle: suspension in saline) was 90 % of control.

In the case of CN1C2=NCCN2S(=O)(=O)c2ccccc21, the T/C [13] is reported as 101 % of control, the T/C [14] is reported as 110 % of control and the T/C [15] is reported as 92 % of control.

For CCCCN(CCCC)c1ccc(C(=N)c2ccc(N(CCCC)CCCC)cc2)cc1, the T/C (dose: 6.25 mg/kg/injection, schedule: Q01DX005 (ip), vehicle: Klucel (hydroxypropylcellulose) (HPC)) was 108 % of control, the T/C (dose: 12.5 mg/kg/injection, schedule: Q01DX005 (ip), vehicle: Klucel (hydroxypropylcellulose) (HPC)) was 108 % of control and the T/C (dose: 25.0 mg/kg/injection, schedule: Q01DX005 (ip), vehicle: Klucel (hydroxypropylcellulose) (HPC)) was 117 % of control.

For COc1cc2ccc1NC(=O)N1CCN(CC1)C(=O)Nc1ccc(cc1OC)-c1ccc(c(OC)c1)NC(=O)N1CCN(CC1)C(=O)Nc1ccc-2cc1OC, the T/C [7] was 101 % of control, the T/C [8] was 98 % of control and the T/C [9] was 102 % of control.
